This note sets out measurements from patent US6153589A, “2,3-epoxy alcohols, acids and derivatives as anti retroviral chemotherapeutic agents” (The United States of America as represented by the …, priority 1992, dated 2000).

The subject of this test is HIV1 IIIb. Kind of test: microbe, parasite or virus in culture. The format is cell-based. As to conditions: Human immunodeficiency virus 1, IIIB; for viability at 10 µg/mL: 10 ug/ml; for viability at 0.1 µg/mL: 0.1 ug/ml; for viability at 1 µg/mL: 1 ug/ml; for viability at 100 µg/mL: 100 ug/ml; for viability at 4.07 µg/mL: 4.07 ug/ml; for viability at 34.6 µg/mL: 34.6 ug/ml; for viability at 29 µg/mL: 29 ug/ml; for viability at 24.8 µg/mL: 24.8 ug/ml; for viability at 4.7 µg/mL: 4.7 ug/ml, virus kill 22.0%. From the text:
In-vitro Screening Anti--HIV XTT Assay
This assay, which is available to the public by the National Cancer Institute, utilizes colorimetry based on the production of a colored formazin from a tetrazolium salt by viable cells, to develop a safe, rapid and quantitative measure of HIV cytopathology. The assay is a modification of the previously described screening method for the detection of anti-tumor drug cytotoxicity (D. A. Scudiero, et al, Cancer Res, 48, 4827-4833 (1988)). It involves the plating of susceptible human "host" cells with and without virus in microculture plates, adding various concentrations of the respective test compounds, incubating the plates for seven days, during which time infected, non-drug treated control cells are largely or totally destroyed by the virus. The number of remaining viable cells are determined utilizing a calorimetric endpoint. A beneficial antiviral effect is indicated by a response % grater than the virus kill %, with 100% being optimal.
Anti-viral effect: Response (Viable Cells, determined by colorometric
absorbance of formazan dye produced) as % of uninfected controls
Virus Source: HIV1 IIIb; C, Virus producing H9 cells; V, cell free virus
Virus Kill: Infected untreated cells as % of uninfected cell controls
*: Culture redosed with compound after 3 days

[1] abbreviates: H9, 168 h, read-out: Antiviral Effect (viable cells as % of uninfected controls), run 1, source C (virus producing H9 cells), virus kill 21.0%.

Like-named read-outs stand apart in the source and are kept apart here.

Regarding `CCCCCCCCCCC[C@@H]1O[C@@H]1C(=O)O` (relative stereo) [Example 19, (2S*-cis)-3-Undecyloxiranecarboxylic Acid], the viability at 10 µg/mL was determined as 63.9% (168 h, read-out: Antiviral Effect (viable cells as % of uninfected controls), run 4, source V (cell free virus), virus kill 57.0%); 38.8% (168 h, read-out: Antiviral Effect (viable cells as % of uninfected controls), run 5, source V (cell free virus), virus kill 26.0%); 55.7% (H9, 168 h, read-out: Antiviral Effect (viable cells as % of uninfected controls), run 2, source C (virus producing H9 cells), virus kill 15.0%). Also, the viability at 0.1 µg/mL (168 h, read-out: Antiviral Effect (viable cells as % of uninfected controls), run 6, source V (cell free virus), virus kill 19.0%) was determined as 27.6%. For the same molecule, the viability at 1 µg/mL was 12.5% (168 h, read-out: Antiviral Effect (viable cells as % of uninfected controls), run 7*, source V (cell free virus), virus kill 25.0%, culture redosed with compound after 3 days); 22.6% under setting [1]; 11.6% (H9, 168 h, read-out: Antiviral Effect (viable cells as % of uninfected controls), run 3, source C (virus producing H9 cells), virus kill 13.0%).
`CCCCCCCCCCC[C@H]1O[C@@H]1C(=O)O` (relative stereo) [Example 20, (2S*-trans)-3-Undecyloxiranecarboxylic Acid]: the viability at 100 µg/mL (168 h, read-out: Antiviral Effect (viable cells as % of uninfected controls), run 6, source V (cell free virus), virus kill 55.0%) is 75.7%; the viability at 100 µg/mL (168 h, read-out: Antiviral Effect (viable cells as % of uninfected controls), run 7, source V (cell free virus), virus kill 55.0%) amounted to 84.3%; the viability at 100 µg/mL (168 h, read-out: Antiviral Effect (viable cells as % of uninfected controls), run 8, source V (cell free virus), virus kill 24.0%) was 40.2%; the viability at 100 µg/mL (168 h, read-out: Antiviral Effect (viable cells as % of uninfected controls), run 9, source V (cell free virus), virus kill 24.0%) worked out at 72.5%; the viability at 100 µg/mL (H9, 168 h, read-out: Antiviral Effect (viable cells as % of uninfected controls), run 3, source C (virus producing H9 cells), virus kill 14.0%) turned out to be 60.9%; the viability at 100 µg/mL (H9, 168 h, read-out: Antiviral Effect (viable cells as % of uninfected controls), run 4, source C (virus producing H9 cells), virus kill 10.0%) stood at 10%. In addition, where the note is “H9, 168 h, read-out: Antiviral Effect (viable cells as % of uninfected controls), run 5, source C (virus producing H9 cells), virus kill 10.0%”, the viability at 100 µg/mL came out at 10.2%. Further, the viability at 4.07 µg/mL (168 h, read-out: Antiviral Effect (viable cells as % of uninfected controls), run 10, source V (cell free virus), virus kill 25.0%) turned out to be 45.5% and the viability at 4.07 µg/mL (168 h, read-out: Antiviral Effect (viable cells as % of uninfected controls), run 11*, source V (cell free virus), virus kill 23.0%, culture redosed with compound after 3 days) was 87.4%. For the same molecule, the viability at 10 µg/mL worked out at 22.6% (H9, 168 h, read-out: Antiviral Effect (viable cells as % of uninfected controls), run 1, source C (virus producing H9 cells), virus kill 18.0%) and 59.5% (H9, 168 h, read-out: Antiviral Effect (viable cells as % of uninfected controls), run 2, source C (virus producing H9 cells), virus kill 14.0%).
`CCCCCCCCC[C@@H]1O[C@@H]1C(=O)O` [Example 22, (2-S-cis)-3-Nonyloxiranecarboxylic Acid]: the viability at 34.6 µg/mL by setting is: (168 h, read-out: Antiviral Effect (viable cells as % of uninfected controls), run 8, source V (cell free virus), virus kill 54.0%) 85.5%; (168 h, read-out: Antiviral Effect (viable cells as % of uninfected controls), run 10, source V (cell free virus), virus kill 26.0%) 40.3%; (H9, 168 h, read-out: Antiviral Effect (viable cells as % of uninfected controls), run 4, source C (virus producing H9 cells), virus kill 16.0%) 25.9%; (H9, 168 h, read-out: Antiviral Effect (viable cells as % of uninfected controls), run 6, source C (virus producing H9 cells), virus kill 14.0%) 12.8%. The viability at 29 µg/mL (168 h, read-out: Antiviral Effect (viable cells as % of uninfected controls), run 9, source V (cell free virus), virus kill 55.0%) amounted to 68.5%; the viability at 29 µg/mL (168 h, read-out: Antiviral Effect (viable cells as % of uninfected controls), run 11, source V (cell free virus), virus kill 33.0%) worked out at 41.9%; the viability at 29 µg/mL (H9, 168 h, read-out: Antiviral Effect (viable cells as % of uninfected controls), run 5, source C (virus producing H9 cells), virus kill 13.0%) was 18.5%. For the same molecule, the viability at 24.8 µg/mL (168 h, read-out: Antiviral Effect (viable cells as % of uninfected controls), run 12, source V (cell free virus), virus kill 30.0%) was 23.1% and the viability at 24.8 µg/mL (168 h, read-out: Antiviral Effect (viable cells as % of uninfected controls), run 13*, source V (cell free virus), virus kill 20.0%, culture redosed with compound after 3 days) was 26.6%. Further, the viability at 10 µg/mL under setting [1] came out at 50.1%. Also, the viability at 0.1 µg/mL by setting is: (H9, 168 h, read-out: Antiviral Effect (viable cells as % of uninfected controls), run 2, source C (virus producing H9 cells), virus kill 20.0%) 25.6%; (H9, 168 h, read-out: Antiviral Effect (viable cells as % of uninfected controls), run 3, source C (virus producing H9 cells), virus kill 8.0%) 9.5%. The viability at 2.9 µg/mL (H9, 168 h, read-out: Antiviral Effect (viable cells as % of uninfected controls), run 7, 2.9 ug/ml, source C (virus producing H9 cells), virus kill 16.0%) came to 11.5%.
`COC(=O)[C@@H]1O[C@@H]1COCc1ccccc1` [Example 25, Methyl (2R-cis)-3-(benzyloxymethyl)oxirane Carboxylate]: the viability at 10 µg/mL was determined as 46.5% (168 h, read-out: Antiviral Effect (viable cells as % of uninfected controls), run 4, source V (cell free virus), virus kill 55.0%) and 12.3% (H9, 168 h, read-out: Antiviral Effect (viable cells as % of uninfected controls), run 3, source C (virus producing H9 cells), virus kill 11.0%). The viability at 1 µg/mL (168 h, read-out: Antiviral Effect (viable cells as % of uninfected controls), run 5, source V (cell free virus), virus kill 27.0%) came out at 49%. The viability at 4.7 µg/mL came to 25.6% (168 h, read-out: Antiviral Effect (viable cells as % of uninfected controls), run 6, source V (cell free virus)) and 28.5% (168 h, read-out: Antiviral Effect (viable cells as % of uninfected controls), run 7*, source V (cell free virus), culture redosed with compound after 3 days). The viability at 100 µg/mL turned out to be 28.6% (H9, 168 h, read-out: Antiviral Effect (viable cells as % of uninfected controls), run 1, source C (virus producing H9 cells), virus kill 20.0%) and 19.5% (H9, 168 h, read-out: Antiviral Effect (viable cells as % of uninfected controls), run 2, source C (virus producing H9 cells), virus kill 13.0%).
